Assay: MRI contrast enhancement in blood over time, 1.5 T clinical MRI, mice brain slice
Type: in vivo
Conditions: intravenous injection, T1-weighted
Description: The MRI contrast enhancement of Magnevist® (the most commonly used gadolinium-based contrast agents, GBCAs) and ES-SPIONs in blood were compared over time. According to approved animal protocols, mice were scanned in a 1.5 T clinical MRI machine. After intravenous injection of Magnevist or ES-SPIONs, the T1-weighted images of a single slice in mice brain were taken using clinical MRI sequences (˜3.5 mins time length), and then the half-life of contrast enhancements of both agents were compared side-by-side. […] Left and right images show corresponding side views of the image in the middle. It can be seen in FIG. 6 that a three dimensional profile highlighting the blood vessels in brain was generated.

half-life of contrast enhancement: ~2 min
Structure (SMILES): CNC[C@H](O)[C@@H](O)[C@H](O)[C@H](O)CO.CNC[C@H](O)[C@@H](O)[C@H](O)[C@H](O)CO.O=C([O-])CN(CCN(CC(=O)[O-])CC(=O)O)CCN(CC(=O)[O-])CC(=O)O.[Gd+3] [Magnevist]
